From patent US8030506B2, “Tumor selective and biodegradable cyclotriphosphazene-platinum(II) conjugate anticancer agent, and preparation method thereof” (Nanohybrid Co., Ltd, priority 2007, dated 2011)

Assays:
Experiment in all cases: In vitro cytotoxicity against human cancer cell lines
Details in all cases: read-out: In vitro cytotoxicities, IC50
[1] = tested on: MCF (breast cancer)
[2] = tested on: SK-OV3 (ovarian cancer)
[3] = tested on: A-431 (vulvar cancer)
[4] = tested on: MES-SA (uterine cancer)

With `N.N.O=C([O-])C1(C(=O)[O-])CCC1.[Pt+2]` [Carboplatin, carboplatin] the IC50 [1] was 48 µM, the IC50 [2] was 76.5 µM and the IC50 [3] was 45.9 µM. It also gave an IC50 [4] of 48 µM.
